The text below walks through data of ChEMBL document CHEMBL5523716, “Discovery of novel EGFR-PROTACs capable of degradation of multiple EGFR-mutated proteins” (Eur J Med Chem, 2024).

For one test, the system named is A-431. In words: Antiproliferative activity against human A-431 cells harboring EGFR wild type assessed as inhibition of cell growth incubated for 48 to 72 hrs by CCK-8 assay. Format: functional, cell-based. A general note: Formazan colour is commonly taken as a measure of viable cells.
The subject of test [1] is von Hippel-Lindau disease tumor suppressor/Epidermal growth factor receptor (Homo sapiens), P00533+P40337 [L858R,T790M]. Description: PROTAC activity at VHL/EGFR L858R/T790M mutant in human NCI-H1975 cells assessed as maximal EGFR degradation at 0.15 to 10 uM incubated for 72 hrs by Western blot analysis relative to control. Format: cell-based. The settings on record: dose 0.15-10 µM. On the technique in general: In western blotting, separated proteins are transferred to a membrane and probed.

Test [2] concerns NCI-H1975. In words: Antiproliferative activity against human NCI-H1975 cells harboring EGFR L858R/T790M double mutant assessed as inhibition of cell growth incubated for 48 to 72 hrs by CCK-8 assay. Format: functional, cell-based.
Test [3] in a line: Antiproliferative activity against human H1975-TM cells harboring EGFR L858R/T790M/C797S mutant assessed as inhibition of cell growth incubated for 48 to 72 hrs by CCK-8 assay. Format: functional, cell-based.
The test system of the next test is A549. Description: Antiproliferative activity against human A549 cells harboring EGFR wild type assessed as inhibition of cell growth incubated for 48 to 72 hrs by CCK-8 assay. Format: functional, cell-based.
Test [4] has as its target von Hippel-Lindau disease tumor suppressor/Epidermal growth factor receptor (Homo sapiens, UniProt P00533+P40337, T790M/L858R). In words: PROTAC activity at VHL/EGFR L858R/T790M mutant in human NCI-H1975 cells assessed as induction of EGFR degradation incubated for 72 hrs by Western blot analysis. Format: cell-based.
Test [5] concerns von Hippel-Lindau disease tumor suppressor/Epidermal growth factor receptor (Homo sapiens), P00533+P40337 [UNDEFINED MUTATION]. In words: PROTAC activity at VHL/EGFR Del19 mutant in human HCC827 cells assessed as maximal EGFR degradation at 3.125 to 200 nM incubated for 72 hrs by Western blot analysis relative to control. To be noted: dose 3.125-200 nM. Format: cell-based.
Sequence of von Hippel-Lindau disease tumor suppressor/Epidermal growth factor receptor (Homo sapiens), P00533+P40337 [UNDEFINED MUTATION] (P00533 whole entry, looked up, stated change not applied): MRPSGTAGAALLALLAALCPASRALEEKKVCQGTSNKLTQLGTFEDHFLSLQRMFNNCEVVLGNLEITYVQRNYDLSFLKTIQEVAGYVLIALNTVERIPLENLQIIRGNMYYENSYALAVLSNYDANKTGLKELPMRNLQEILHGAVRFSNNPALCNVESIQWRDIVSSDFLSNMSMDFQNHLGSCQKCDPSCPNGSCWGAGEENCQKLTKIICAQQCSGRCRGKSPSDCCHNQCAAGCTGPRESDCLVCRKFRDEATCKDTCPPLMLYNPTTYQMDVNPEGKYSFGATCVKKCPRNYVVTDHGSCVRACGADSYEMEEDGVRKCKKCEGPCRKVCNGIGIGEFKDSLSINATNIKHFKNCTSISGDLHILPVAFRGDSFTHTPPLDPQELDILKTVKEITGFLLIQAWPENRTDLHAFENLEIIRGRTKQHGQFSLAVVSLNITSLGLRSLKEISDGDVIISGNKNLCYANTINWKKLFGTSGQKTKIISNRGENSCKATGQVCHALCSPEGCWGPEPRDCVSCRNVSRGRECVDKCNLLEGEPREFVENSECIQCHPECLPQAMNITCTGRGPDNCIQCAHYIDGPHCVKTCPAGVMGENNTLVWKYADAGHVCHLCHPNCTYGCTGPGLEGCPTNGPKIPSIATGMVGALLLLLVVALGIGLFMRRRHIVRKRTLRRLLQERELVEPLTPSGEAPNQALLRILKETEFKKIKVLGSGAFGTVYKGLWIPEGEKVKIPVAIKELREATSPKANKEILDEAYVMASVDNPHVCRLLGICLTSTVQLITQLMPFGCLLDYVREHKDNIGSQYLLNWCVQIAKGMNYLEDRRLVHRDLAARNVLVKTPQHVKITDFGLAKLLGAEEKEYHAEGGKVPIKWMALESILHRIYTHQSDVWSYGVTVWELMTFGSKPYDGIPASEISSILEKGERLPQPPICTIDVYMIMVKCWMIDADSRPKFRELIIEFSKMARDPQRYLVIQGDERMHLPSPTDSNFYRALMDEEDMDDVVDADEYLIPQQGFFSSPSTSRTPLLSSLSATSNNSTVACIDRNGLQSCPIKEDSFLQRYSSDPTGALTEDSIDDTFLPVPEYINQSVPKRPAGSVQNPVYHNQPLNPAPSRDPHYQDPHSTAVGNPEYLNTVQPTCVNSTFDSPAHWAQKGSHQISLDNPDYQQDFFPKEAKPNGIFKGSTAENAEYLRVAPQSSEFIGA
Sequence of von Hippel-Lindau disease tumor suppressor/Epidermal growth factor receptor (Homo sapiens), P00533+P40337 [UNDEFINED MUTATION] (P40337 whole entry, looked up, stated change not applied): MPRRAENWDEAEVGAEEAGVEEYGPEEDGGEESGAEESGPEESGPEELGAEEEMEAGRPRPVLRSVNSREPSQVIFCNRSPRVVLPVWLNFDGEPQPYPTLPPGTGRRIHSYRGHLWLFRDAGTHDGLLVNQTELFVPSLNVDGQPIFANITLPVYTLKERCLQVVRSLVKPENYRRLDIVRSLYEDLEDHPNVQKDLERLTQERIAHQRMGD
The subject of test [6] is HCC827. Description: Antiproliferative activity against human HCC827 cells harboring EGFR Del19 mutant assessed as inhibition of cell growth incubated for 48 to 72 hrs by CCK-8 assay. Format: functional, cell-based.
Test [7] has as its target von Hippel-Lindau disease tumor suppressor/Epidermal growth factor receptor (Homo sapiens, UniProt P00533+P40337). Description: PROTAC activity at VHL/EGFR Del19 mutant in human HCC827 cells assessed as induction of EGFR degradation incubated for 72 hrs by Western blot analysis. Format: cell-based.
Test [8] relates to NCI-H1975. Description: Antitumor activity against human NCI-H1975 cells xenografted in BALB/c mouse assessed as tumor growth inhibition at 10 mg/kg,ip once daily for 22 days relative to control. Format: functional. The settings on record: NCI-H1975, 528 h, time 22 day, read-out: TGI. For orientation: Xenograft models place foreign cells or tissue in a host animal.
Test [9] deals with HCC827. In words: Antitumor activity against human HCC827 cells xenografted in BALB/c mouse assessed as tumor growth inhibition at 5 mg/kg,ip once daily for 28 days relative to control. To be noted: HCC827, 672 h, time 28 day, read-out: TGI. Format: functional.
The nature of test [10]: Antitumor activity against human H1975-TM cells xenografted in BALB/c mouse assessed as tumor growth inhibition at 10 mg/kg,ip once daily for 14 days relative to control. The settings on record: 336 h, time 14 day, read-out: TGI. Format: functional.

Bounds are passed on as bounds.

Sequence of von Hippel-Lindau disease tumor suppressor/Epidermal growth factor receptor (Homo sapiens, UniProt P00533+P40337) (P00533 whole entry, looked up, stated change not applied): as the sequence (P00533 whole entry, looked up, stated change not applied) above
Sequence of von Hippel-Lindau disease tumor suppressor/Epidermal growth factor receptor (Homo sapiens, UniProt P00533+P40337) (P40337 whole entry, looked up, stated change not applied): as the sequence (P40337 whole entry, looked up, stated change not applied) above
Sequence of von Hippel-Lindau disease tumor suppressor/Epidermal growth factor receptor (Homo sapiens, UniProt P00533+P40337, T790M/L858R) (P00533 25-1210 T790M/L858R limits assumed, stated change not applied): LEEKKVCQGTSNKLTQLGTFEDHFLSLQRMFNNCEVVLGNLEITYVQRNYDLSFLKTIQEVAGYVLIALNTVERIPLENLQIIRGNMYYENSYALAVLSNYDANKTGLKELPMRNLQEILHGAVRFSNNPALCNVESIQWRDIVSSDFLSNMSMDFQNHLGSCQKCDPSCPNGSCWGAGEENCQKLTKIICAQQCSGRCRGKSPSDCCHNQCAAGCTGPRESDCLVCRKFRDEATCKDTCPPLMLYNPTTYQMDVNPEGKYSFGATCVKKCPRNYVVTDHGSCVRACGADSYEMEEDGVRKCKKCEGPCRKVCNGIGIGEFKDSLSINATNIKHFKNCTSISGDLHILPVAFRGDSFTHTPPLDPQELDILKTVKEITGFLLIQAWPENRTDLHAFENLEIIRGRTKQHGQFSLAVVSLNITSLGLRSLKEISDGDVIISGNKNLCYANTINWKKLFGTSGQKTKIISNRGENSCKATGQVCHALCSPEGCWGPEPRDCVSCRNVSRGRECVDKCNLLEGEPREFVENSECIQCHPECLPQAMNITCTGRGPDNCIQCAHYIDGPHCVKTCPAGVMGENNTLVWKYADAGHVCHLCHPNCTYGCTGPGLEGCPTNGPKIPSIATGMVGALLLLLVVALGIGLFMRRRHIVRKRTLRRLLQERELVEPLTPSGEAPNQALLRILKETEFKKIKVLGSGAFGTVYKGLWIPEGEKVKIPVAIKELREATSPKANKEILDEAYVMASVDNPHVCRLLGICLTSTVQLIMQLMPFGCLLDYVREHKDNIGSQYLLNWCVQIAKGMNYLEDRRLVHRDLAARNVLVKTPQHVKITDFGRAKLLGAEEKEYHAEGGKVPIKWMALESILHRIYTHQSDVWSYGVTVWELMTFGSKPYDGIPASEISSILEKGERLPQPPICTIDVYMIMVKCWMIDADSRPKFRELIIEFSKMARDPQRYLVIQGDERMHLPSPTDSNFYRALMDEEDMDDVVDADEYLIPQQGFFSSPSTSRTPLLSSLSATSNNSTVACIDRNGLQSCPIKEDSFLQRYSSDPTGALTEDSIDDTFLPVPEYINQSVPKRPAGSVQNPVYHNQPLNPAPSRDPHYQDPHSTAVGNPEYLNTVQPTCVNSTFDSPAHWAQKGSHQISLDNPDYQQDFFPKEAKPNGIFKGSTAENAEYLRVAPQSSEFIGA
Sequence of von Hippel-Lindau disease tumor suppressor/Epidermal growth factor receptor (Homo sapiens, UniProt P00533+P40337, T790M/L858R) (P40337 whole entry, stated change not applied): as the sequence (P40337 whole entry, looked up, stated change not applied) above

The IC50 is the concentration needed to halve the response being measured. As usually defined, the DC50 is the concentration at which degradation of the target reaches its halfway point. For `CCN(CC)C/C=C/C(=O)Nc1cc2c(Nc3ccc(F)c(Cl)c3)ncnc2cc1OCc1cn(CCCCCCCCCCC(=O)N[C@H](C(=O)N2C[C@H](O)C[C@H]2C(=O)NCc2ccc(-c3scnc3C)cc2)C(C)(C)C)nn1`, the IC50 is over 20000 nM in the test with A-431; 380 nM with NCI-H1975 [2]; over 20000 nM in test [3]; over 20000 nM in the test with A549; 15 nM with HCC827 [6]. Besides, the values for the Emax in test [1] and in test [5] were 93% and 99%, respectively. In addition, the DC50 was found to be 380 nM in [4] and 28.7 nM in test [7].
For `COc1cc2ncnc(Nc3ccc(F)c(Cl)c3)c2cc1NC(=O)/C=C/CN1CCCCC1` [DACOMITINIB ANHYDROUS], the half-maximal inhibitory concentration (IC50) in the test with A-431 was found to be 1960 nM; in the test with NCI-H1975 [2], 700 nM; in test [3], 7010 nM; with A549 it was 490 nM; in the test on HCC827 [6], 7 nM. In the test on NCI-H1975 [8], the inhibition in vivo at 10 mg/kg is 67%. In addition, in the test on HCC827 [9], the inhibition in vivo at 5 mg/kg is 90%.
With `C=CC(=O)Nc1cc(Nc2nccc(-c3cn(C)c4ccccc34)n2)c(OC)cc1N(C)CCN(C)C` [OSIMERTINIB], the IC50 was […] in the test on A-431; […] with NCI-H1975 [2]; 6700 nM in [3]; 1230 nM in the test with A549; 6 nM with HCC827 [6]. In addition, the inhibition in vivo at 10 mg/kg in test [10] stood at 27%.
